Starred links: 1 amine or outer side, 2 acyl side, 3 side chain; linkers in the order of their positions; H or OH if unused. Positions of bridges follow the written chain, without caps; N, C: chain ends. Residues, ends and D or L forms follow the SMILES beside them. No end group written: not given here. mXylylene = c1cc(C[*:1])cc(C[*:2])c1
What was measured:
[1] = biological target: CaVβ2a core (Rattus norvegicus, UniProt Q8VGC3); assay: Isothermal titration calorimetry, AID peptide:CaVβ2a binding; conditions: for Kd: 150 mM KCl, 10 mM potassium phosphate, 20 μM peptide into 2 μM CaVβ2a core
Text: Having determined that the backbone staples are able to affect AID helix content (Figure 1) and are structurally compatible with the CaVβ-AID interaction (Figure 2), we used isothermal titration calorimetry (ITC) to investigate whether the AID staples impacted binding thermodynamics. […] (Figure 3A, Table 1). This binding reaction is driven by a favorable enthalpic component (ΔH = −15.6 ± 2.4 kcal mol^–1) that is opposed by a large entropic cost (ΔS = −16.7 ± 6.0 cal mol^–1 K^–1) that most likely results from the requirement to reduce the degrees of freedom of the highly disordered ligand upon binding.
Titrations were performed at 15 °C using a VP-ITC microcalorimeter (MicroCal). Samples were dialyzed overnight at 4 °C (Slide-A-Lyzer, 2 kDa molecular weight cutoff, Thermo Scientific) against 150 mM KCl and 10 mM potassium phosphate, pH 7.3. After 30 min centrifugation at 40 000 rpm at 4 °C, protein concentrations were determined by absorbance at 280 nm.[91] All samples were degassed for 5 min prior to loading into the calorimeter. CaV1.2 CaVβ2a core at a concentration of 2 μM was titrated with 20 μM modified or unmodified AID peptide with one 4 μL injection followed by 29 injections of 10 μL of titrant. To correct the baseline, heat of dilution from titrations of injectant into buffer was subtracted. Data were processed with MicroCal Origin 7.0 using a single site binding model.

[2] = biological target: T1, CaV1.2:CaVβ3 (Oryctolagus cuniculus, UniProt P54286); assay: Peptide injection competition, two-electrode voltage clamp, CaV1.2:CaVβ3 channels in Xenopus oocytes; type: cell-based, human CaV1.2; Xenopus oocytes; conditions: for V1/2, midpoint of activation: Ca2+ charge carrier
T1 construct: expressed in transfected cells; host or cells: Xenopus oocytes (mRNA injection)

[3] = Circular dichroism of AID peptides (helical content); type: physicochemical; conditions: 70 μM, 4 °C, 50 mM KCl, 10 mM potassium phosphate, pH 7.3, 2 mm cuvette, triplicate points
Protocol: Circular dichroism spectra were measured in a 2 mm path length quartz cuvette (Hellma), 50 mM KCl, and 10 mM KH2PO4/K2HPO4, pH 7.3, using an Aviv model 215 spectropolarimeter (Aviv Biomedical) equipped with a Peltier temperature controller. Wavelength scans from 320 to 190 nm were taken at 4 °C. Each point was determined in triplicate from the same sample and subtracted by the average of a triplicate buffer scan. Each sample was checked for purity by HPLC. Molar ellipticity was calculated as follows: θ = 100(Δm)/(Cnl), where Δm is the CD signal in millidegrees after buffer subtraction, C is the millimolar peptide concentration, n is the number of residues in the peptide, and l is the cuvette path length in centimeters.

[4] = biological target: CaV1.2-Y437A:CaVβ2a (Rattus norvegicus, UniProt Q8VGC3); assay: Peptide injection competition, two-electrode voltage clamp, CaV1.2-Y437A:CaVβ2a channels in Xenopus oocytes; conditions: 400 μM peptide; for ti300, percent inactivation at 300 ms / A1, relative amplitude of fast inactivation component / A2, relative amplitude of second inactivation component / τ1, fast inactivation time constant / τ2, second inactivation time constant: +20 mV; for ti300, percent inactivation at 300 ms / V1/2, midpoint of activation: Ca2+ charge carrier; for ti300, percent inactivation at 300 ms / A1, relative amplitude of fast inactivation component / A2, relative amplitude of second inactivation component / τ1, fast inactivation time constant / τ2, second inactivation time constant / V1/2, midpoint of activation / Imax, maximal current amplitude: mean ± SEM
[5] = ITC, 15 °C, pH 7.3, single site model, n = 3 (Cav1.2 AID), 2 (AID-CEN), 3 (AID-CAP)
[6] = ITC, 15 °C, pH 7.3, n = 3 (Cav1.2 AID), 2 (AID-CEN), 3 (AID-CAP)
[7] = 2.8 mM peptide, over 30 min postinjection
[8] = 5 min postinjection, 2.8 mM peptide, +20 mV, double exponential fit, mean ± SEM, N = 6 (AID-CAP), 7 (AID)
[9] = 5 min postinjection, 2.8 mM peptide, +20 mV, monoexponential fit, mean ± SEM, N = 6 (AID-CAP), 7 (AID)
[10] = 5 min postinjection, 2.8 mM peptide, mean ± SEM, N = 6 (AID-CAP), 7 (AID)
[11] = 30 min postinjection, 2.8 mM peptide, +20 mV, monoexponential fit, mean ± SEM, N = 6 (AID-CAP), 7 (AID)
[12] = 30 min postinjection, 2.8 mM peptide, mean ± SEM, N = 6 (AID-CAP), 7 (AID)

T1 sequence (P54286 whole entry): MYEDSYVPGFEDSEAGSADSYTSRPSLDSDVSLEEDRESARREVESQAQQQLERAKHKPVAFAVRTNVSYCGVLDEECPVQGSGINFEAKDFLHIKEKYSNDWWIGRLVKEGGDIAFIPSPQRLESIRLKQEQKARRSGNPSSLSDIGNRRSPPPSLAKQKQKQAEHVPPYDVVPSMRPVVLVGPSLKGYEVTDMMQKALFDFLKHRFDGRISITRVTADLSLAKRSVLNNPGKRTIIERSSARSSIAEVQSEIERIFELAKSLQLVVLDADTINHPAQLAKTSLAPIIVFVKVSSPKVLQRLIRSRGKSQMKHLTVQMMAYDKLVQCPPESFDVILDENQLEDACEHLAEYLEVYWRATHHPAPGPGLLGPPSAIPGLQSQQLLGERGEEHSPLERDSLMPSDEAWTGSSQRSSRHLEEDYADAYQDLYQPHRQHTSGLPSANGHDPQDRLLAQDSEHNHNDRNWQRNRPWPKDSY

Compound: CQQLEEDLKGYLDWITQAE-NH2 [AID]
- Kd [1, 5]: 6.6 ± 2 nM
- ΔH [1, 6]: –15.6 ± 2.4 kcal mol^–1
- ΔS [1, 6]: –16.7 ± 6.0 cal mol^–1 K^–1
- N (binding stoichiometry) [1, 5]: 0.94 ± 0.07
- Kd/Kd CaV1.2 AID ([1]; ratio of Kd to that of CaV1.2 AID): 1
- P vs HotA, Figure 7B, E, F (ti300, Imax) ([2]; 2.8 mM peptide vs 4 mM HotA): < 0.001
- P vs HotA, Figure 7C, D (inactivation τ, ΔV1/2) ([2]; 2.8 mM peptide vs 4 mM HotA): < 0.05
- change in channel inactivation kinetics, in words [2, 7]: changed from one having two components to a monoexponential process
- current rundown, in words [2, 7]: strongly increased current rundown
- A1 [2, 8]: 54.0 ± 2.7%
- A2 [2, 8]: 34.1 ± 1.4%
- τ1 [2, 8]: 40.0 ± 5.2 ms
- τ2 [2, 8]: 354.4 ± 119.2 ms
- A1 [2, 9]: 76.9 ± 3.1%
- τ1 [2, 9]: 62.6 ± 7.6 ms
- ti300, percent inactivation at 300 ms ([2]; 5 min postinjection, 2.8 mM peptide, +20 mV, mean ± SEM, N = 6 (AID-CAP), 7 (AID)): 73.4 ± 2.0%
- V1/2, midpoint of activation [2, 10]: 10.4 ± 2.2 mV
- Imax, maximal current amplitude [2, 10]: –0.860 ± 0.096
- A1 [2, 11]: 65.0 ± 4.0%
- τ1 [2, 11]: 118.2 ± 11.0 ms
- ti300, percent inactivation at 300 ms ([2]; 30 min postinjection, 2.8 mM peptide, +20 mV, mean ± SEM, N = 6 (AID-CAP), 7 (AID)): 49.8 ± 1.9%
- V1/2, midpoint of activation [2, 12]: 21.0 ± 2.0 mV
- Imax, maximal current amplitude [2, 12]: –0.116 ± 0.010
- effect on CaV1.2α1:CaVβ3 interaction, in words ([2]; 30 min postinjection, AID, AID-CAP 2.8 mM, HotA 4 mM): near complete disruption of the CaV1.2α1:CaVβ3 interaction
- CD spectrum / helical content, in words [3]: absent
- P vs HotA, all panels of Figure 5 (ti300, A1, ΔV1/2, Imax) [4]: < 0.001
- effect on inactivation / CaVβ binding, in words ([4]; 30 min postinjection): interfered completely with CaVβ binding
- rundown of Imax ([4]; over 30 min postinjection, vs water or HotA): consistently higher rundown
- ti300, percent inactivation at 300 ms ([4]; 5 min postinjection): 64.9 ± 1.9%
- A1, relative amplitude of fast inactivation component ([4]; 5 min postinjection): 48.5 ± 1.8%
- A2, relative amplitude of second inactivation component ([4]; 5 min postinjection): 24.1 ± 1.6%
- τ1, fast inactivation time constant ([4]; 5 min postinjection): 35.0 ± 1.5 ms
- τ2, second inactivation time constant ([4]; 5 min postinjection): 251.5 ± 16.1 ms
- V1/2, midpoint of activation ([4]; 5 min postinjection): 2.9 ± 1.7 mV
- Imax, maximal current amplitude ([4]; 5 min postinjection): –0.883 ± 0.111
- ti300, percent inactivation at 300 ms ([4]; 30 min postinjection): 44.8 ± 2.1%
- A1, relative amplitude of fast inactivation component ([4]; 30 min postinjection): 24.5 ± 3.0%
- A2, relative amplitude of second inactivation component ([4]; 30 min postinjection): 31.0 ± 1.9%
- τ1, fast inactivation time constant ([4]; 30 min postinjection): 53.3 ± 14.4 ms
- τ2, second inactivation time constant ([4]; 30 min postinjection): 304.0 ± 50.9 ms
- V1/2, midpoint of activation ([4]; 30 min postinjection): 15.1 ± 2.0 mV
- Imax, maximal current amplitude ([4]; 30 min postinjection): –0.242 ± 0.021

Compound: CC[C@H](C)[C@H](NC(=O)[C@H](Cc1c[nH]c2ccccc12)NC(=O)[C@H](CC(=O)O)NC(=O)[C@H](CC(C)C)NC(=O)[C@H](Cc1ccc(O)cc1)NC(=O)CNC(=O)[C@H](CCCCN)NC(=O)[C@H](CC(C)C)NC(=O)[C@H](CC(=O)O)NC(=O)[C@@H]1CSCc2cccc(c2)CSC[C@H](N)C(=O)N[C@@H](CO)C(=O)N2CCC[C@H]2C(=O)N[C@@H](CC(C)C)C(=O)N[C@@H](CCC(=O)O)C(=O)N1)C(=O)N[C@H](C(=O)N[C@@H](CCC(N)=O)C(=O)N[C@@H](C)C(=O)N[C@@H](CCC(=O)O)C(N)=O)[C@@H](C)O [AID-CAP] (H-CSPLECDLKGYLDWITQAE-NH2; linker 1-6 via mXylylene)
- Kd [1, 5]: 5.1 ± 1.6 nM

Compound: CC[C@H](C)[C@H](NC(=O)[C@H](Cc1c[nH]c2ccccc12)NC(=O)[C@@H]1CSCc2cccc(c2)CSC[C@H](NC(=O)[C@H](CC(C)C)NC(=O)[C@H](CC(=O)O)NC(=O)[C@H](CCC(=O)O)NC(=O)[C@H](CCC(=O)O)NC(=O)[C@H](CC(C)C)NC(=O)[C@@H]2CCCN2C(=O)[C@H](CO)NC(=O)[C@H](C)N)C(=O)NCC(=O)N[C@@H](Cc2ccc(O)cc2)C(=O)N[C@@H](CC(C)C)C(=O)N1)C(=O)N[C@H](C(=O)N[C@@H](CCC(N)=O)C(=O)N[C@@H](C)C(=O)N[C@@H](CCC(=O)O)C(N)=O)[C@@H](C)O [AID-CEN] (H-ASPLEEDLCGYLCWITQAE-NH2; linker 9-13 via mXylylene)
- Kd [1, 5]: 5.2 ± 1.5 nM

Source: publication PMC5481814, “Stapled Voltage-Gated Calcium Channel (CaV) α-Interaction Domain (AID) Peptides Act As Selective Protein–Protein Interaction Inhibitors of CaV Function” (ACS Chemical Neuroscience, 2017)
